Source: paper PMC7139656, “The Landscape of the Anti-Kinase Activity of the IDH1 Inhibitors” (Cancers, 2020)

Legend:
Lyn B = molecular target: T1, Lyn B (Homo sapiens, UniProt P07948); test: Tyrosine kinase inhibition in vitro (TK-2 panel, ADP-Glo); type: biochemical; conditions: for inhibition at 0.5 µM: compound at 0.5 μM, read-out: Inhibitory Effect of the Non-Receptor Tyrosine Kinase Activity, Lyn B
T1 construct: purchased Promega

Lck = molecular target: T2, Lck (Homo sapiens, UniProt P06239); test: as above; type: biochemical; conditions: compound at 0.5 μM; read-out: Inhibitory Effect of the Non-Receptor Tyrosine Kinase Activity, Lck
T2 construct: purchased Promega
T2 sequence (P06239 whole entry): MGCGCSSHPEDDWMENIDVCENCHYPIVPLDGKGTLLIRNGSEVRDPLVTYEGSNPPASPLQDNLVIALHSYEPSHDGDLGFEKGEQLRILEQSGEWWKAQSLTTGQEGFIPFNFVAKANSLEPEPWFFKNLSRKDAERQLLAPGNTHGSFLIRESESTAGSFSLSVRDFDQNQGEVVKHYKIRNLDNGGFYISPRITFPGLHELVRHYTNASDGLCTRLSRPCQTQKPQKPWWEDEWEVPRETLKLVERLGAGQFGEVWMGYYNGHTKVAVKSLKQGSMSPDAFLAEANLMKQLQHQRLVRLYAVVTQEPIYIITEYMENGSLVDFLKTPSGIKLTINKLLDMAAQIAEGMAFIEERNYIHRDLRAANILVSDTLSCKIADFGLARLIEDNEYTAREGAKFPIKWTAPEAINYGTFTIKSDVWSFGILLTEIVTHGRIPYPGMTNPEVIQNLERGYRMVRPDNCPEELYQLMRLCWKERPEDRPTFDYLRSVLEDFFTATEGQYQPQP
Procedure: (§1) The inhibition of the tyrosine kinases by the tested compounds was measured using the Kinase Selectivity TK-2 Profiling Systems (Promega) as was previously reported. Briefly, the kinases (ABL1; BRK; BTK; CSK; Fyn A; Lck; Lyn B; Src) and substrate/co factor strips were prepared according to the manufacturer’s instructions. The compounds being tested were dissolved in DMSO to a concentration of 100 μM, which was then used as the stock solution to prepare the 0.5 μM final concentration in a 1x Kinase Reaction Buffer (40 mM Tris – pH 7.5; 20 mM MgCl2; 0.1 mg/mL BSA; 50 μM DTT). The experiment began with transferring 1 μl of the prepared solutions of the tested compounds onto a 384-well white plate that was designed for luminescence (Corning). Then, 2 μL of the kinases from the eight-well strip were added into each well and the plate was incubated for 10 min at room temperature (RT), after which 2 μL of the substrates from the eight-well substrate/co-factor strip were added to each well and the plate was left at RT for 1 h. Solutions of 1x Kinase Reaction Buffer with 5% vehicle (DMSO) were used as the negative controls without an inhibitor or enzymes. The activity of each kinase was determined using an ADP-Glo Kinase Assay (Promega). Firstly, in order to stop the reaction, 5 μL of ADP-Glo reagent was added to each well and the plate was incubated for 40 min at RT. Afterwards, 10 μL of the Kinase Detection Reagent was added to each well and the luminescence was measured in a Synergy 4 multi-plate reader following a 30-min incubation at RT. […] The data are expressed as the percentage of the inhibition of tyrosine kinase after treatment with the tested compounds.

Src = molecular target: T3, Src (Homo sapiens, UniProt P12931); test: as above; type: biochemical; conditions: compound at 0.5 μM; read-out: Inhibitory Effect of the Non-Receptor Tyrosine Kinase Activity, Src
T3 construct: purchased Promega
T3 sequence (P12931 whole entry): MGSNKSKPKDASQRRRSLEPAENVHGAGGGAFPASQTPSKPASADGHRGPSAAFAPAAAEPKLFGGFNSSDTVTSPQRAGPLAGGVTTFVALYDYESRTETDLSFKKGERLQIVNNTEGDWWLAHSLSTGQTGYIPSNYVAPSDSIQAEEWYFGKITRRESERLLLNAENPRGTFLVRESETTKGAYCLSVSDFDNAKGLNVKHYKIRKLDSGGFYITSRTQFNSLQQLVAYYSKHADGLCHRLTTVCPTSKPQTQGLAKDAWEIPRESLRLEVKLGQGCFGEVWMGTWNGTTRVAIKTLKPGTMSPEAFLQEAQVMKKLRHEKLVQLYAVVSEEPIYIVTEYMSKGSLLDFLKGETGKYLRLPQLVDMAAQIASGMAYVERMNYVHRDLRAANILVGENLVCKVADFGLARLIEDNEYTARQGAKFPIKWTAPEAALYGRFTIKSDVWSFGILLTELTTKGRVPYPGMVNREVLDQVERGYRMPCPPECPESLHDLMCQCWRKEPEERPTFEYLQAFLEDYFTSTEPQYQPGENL
Procedure: as §1

CSK = molecular target: T4, CSK (Homo sapiens, UniProt P41240); test: as above; type: biochemical; conditions: compound at 0.5 μM; read-out: Inhibitory Effect of the Non-Receptor Tyrosine Kinase Activity, CSK
T4 construct: purchased Promega
T4 sequence (P41240 whole entry): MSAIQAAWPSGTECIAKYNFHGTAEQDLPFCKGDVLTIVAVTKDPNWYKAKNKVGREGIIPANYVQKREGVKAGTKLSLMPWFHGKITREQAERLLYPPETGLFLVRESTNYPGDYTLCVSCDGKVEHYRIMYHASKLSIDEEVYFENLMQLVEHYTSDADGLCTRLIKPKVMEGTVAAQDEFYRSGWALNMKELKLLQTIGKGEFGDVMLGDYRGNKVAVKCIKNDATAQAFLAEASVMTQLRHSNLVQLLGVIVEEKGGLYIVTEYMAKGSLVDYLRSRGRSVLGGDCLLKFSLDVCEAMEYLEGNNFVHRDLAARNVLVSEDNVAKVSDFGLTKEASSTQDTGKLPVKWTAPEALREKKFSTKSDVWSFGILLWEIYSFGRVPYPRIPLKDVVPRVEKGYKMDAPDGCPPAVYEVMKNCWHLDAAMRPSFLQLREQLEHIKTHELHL
Procedure: as §1

BRK = molecular target: T5, BRK (Homo sapiens, UniProt Q13882); test: as above; type: biochemical; conditions: compound at 0.5 μM; read-out: Inhibitory Effect of the Non-Receptor Tyrosine Kinase Activity, BRK
T5 construct: purchased Promega
T5 sequence (Q13882 whole entry): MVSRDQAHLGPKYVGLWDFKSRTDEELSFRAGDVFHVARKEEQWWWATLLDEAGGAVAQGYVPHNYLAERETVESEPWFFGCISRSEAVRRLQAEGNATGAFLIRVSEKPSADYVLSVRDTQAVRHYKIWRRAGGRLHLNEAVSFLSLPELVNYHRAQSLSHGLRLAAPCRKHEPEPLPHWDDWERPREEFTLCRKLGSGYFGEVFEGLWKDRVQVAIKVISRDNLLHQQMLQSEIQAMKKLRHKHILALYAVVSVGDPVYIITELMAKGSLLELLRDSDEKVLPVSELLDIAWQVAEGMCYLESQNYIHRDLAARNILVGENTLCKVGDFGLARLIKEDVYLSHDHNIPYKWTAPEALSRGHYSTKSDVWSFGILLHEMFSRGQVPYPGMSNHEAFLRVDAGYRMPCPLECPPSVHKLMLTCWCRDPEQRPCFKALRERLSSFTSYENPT
Procedure: as §1

BTK = molecular target: T6, BTK (Homo sapiens, UniProt Q06187); test: as above; type: biochemical; conditions: for inhibition at 0.5 µM: compound at 0.5 μM, read-out: Inhibitory Effect of the Non-Receptor Tyrosine Kinase Activity, BTK
T6 construct: purchased Promega
T6 sequence (Q06187 whole entry): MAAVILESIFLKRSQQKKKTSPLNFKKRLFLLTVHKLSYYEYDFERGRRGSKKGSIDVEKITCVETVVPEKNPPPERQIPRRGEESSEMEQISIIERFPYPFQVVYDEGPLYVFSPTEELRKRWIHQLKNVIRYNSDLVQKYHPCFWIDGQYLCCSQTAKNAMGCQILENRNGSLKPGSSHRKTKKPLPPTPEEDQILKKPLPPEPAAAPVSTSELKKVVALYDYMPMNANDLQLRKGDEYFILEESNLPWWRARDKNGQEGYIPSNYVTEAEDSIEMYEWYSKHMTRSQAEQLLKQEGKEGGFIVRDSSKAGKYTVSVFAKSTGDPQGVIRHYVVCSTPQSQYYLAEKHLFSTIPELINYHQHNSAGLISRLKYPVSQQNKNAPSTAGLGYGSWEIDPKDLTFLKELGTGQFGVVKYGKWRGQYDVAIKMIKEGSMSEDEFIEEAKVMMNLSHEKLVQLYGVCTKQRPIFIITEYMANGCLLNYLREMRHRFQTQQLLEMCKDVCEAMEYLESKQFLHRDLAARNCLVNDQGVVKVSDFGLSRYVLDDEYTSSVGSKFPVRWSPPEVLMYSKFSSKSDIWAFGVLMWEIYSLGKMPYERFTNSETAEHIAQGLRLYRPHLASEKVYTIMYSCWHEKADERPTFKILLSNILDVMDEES
Procedure: as §1

Fyn A = molecular target: T7, Fyn A (Homo sapiens, UniProt P06241); test: as above; type: biochemical; conditions: for inhibition at 0.5 µM: compound at 0.5 μM, read-out: Inhibitory Effect of the Non-Receptor Tyrosine Kinase Activity, Fyn A
T7 construct: purchased Promega
T7 sequence (P06241 whole entry): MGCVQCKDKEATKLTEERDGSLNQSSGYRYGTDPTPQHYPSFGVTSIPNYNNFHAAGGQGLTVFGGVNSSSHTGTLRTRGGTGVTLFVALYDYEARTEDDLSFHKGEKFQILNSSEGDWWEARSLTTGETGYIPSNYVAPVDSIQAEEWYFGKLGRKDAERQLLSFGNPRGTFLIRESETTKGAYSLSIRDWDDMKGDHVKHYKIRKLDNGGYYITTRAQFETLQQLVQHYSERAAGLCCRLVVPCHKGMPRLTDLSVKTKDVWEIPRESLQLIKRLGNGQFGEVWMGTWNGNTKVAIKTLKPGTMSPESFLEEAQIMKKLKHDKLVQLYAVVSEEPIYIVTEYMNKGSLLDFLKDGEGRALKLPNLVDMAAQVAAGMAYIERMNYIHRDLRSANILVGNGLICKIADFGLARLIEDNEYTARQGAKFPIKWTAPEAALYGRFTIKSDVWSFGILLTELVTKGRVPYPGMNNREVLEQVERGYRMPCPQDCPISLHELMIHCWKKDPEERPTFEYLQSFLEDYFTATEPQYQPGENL
Procedure: as §1

U-251 = test: Cytotoxicity / antiproliferative activity, MTS test; type: cell-based; conditions: Homo sapiens, 72-h incubation
Procedure: (§2) M. Rusin from the Maria Sklodowska-Curie Memorial Cancer Centre and Institute of Oncology in Gliwice, Poland. […] G. Kramer-Marek from The Institute of Cancer Research in London, United Kingdom. The pancreatic cell line PANC-1 and the human chronic myelogenous leukemia cell line K562 were purchased from Sigma-Aldrich. […] All of these cell lines were grown under standard conditions at 37 °C in a 5% CO2 humidified atmosphere. Prior to beginning the experiments, all of the cell lines were subjected to routine mycoplasma testing with specific Mycoplasma primers using the PCR technique.
(§3) The exponentially growing cells for all of the cell lines were seeded in 96-well plates (Nunc) at a density of 5000 cells/well and incubated at 37 °C for 24 h. The assay was performed following a 72-h incubation with the various concentrations of the compounds that were being tested. Then, 20 µL of CellTiter 96®AQueous One Solution-MTS (Promega) solution was added to each well (with 100 µL DMEM without phenol red) and incubated for 1 h at 37 °C. The optical densities of the samples were analyzed at 490 nm using a multi-plate reader (Synergy 4, BioTek). The results are expressed as the percentage of the control and were calculated as the inhibitory concentration (IC50) values using GraphPad Prism 7. Each individual compound was tested in triplicate in a single experiment with each experiment being repeated five times.

K562 = test: as above; type: cell-based; conditions: Homo sapiens, 72-h incubation
Procedure: as §2, §3

PANC-1 = test: as above; type: cell-based; conditions: Homo sapiens, 72-h incubation
Procedure: as §2, §3

MCF-7 = test: as above; type: cell-based; conditions: Homo sapiens, MCF7, 72-h incubation
Procedure: as §2, §3

HCT 116 p53+/+ = test: as above; type: cell-based; conditions: Homo sapiens, 72-h incubation
Procedure: as §2, §3

HCT 116 p53-/- = test: as above; type: cell-based; conditions: Homo sapiens, 72-h incubation
Procedure: as §2, §3

[1] = tested on: mutant IDH1 (2-HG production) in K562 cells; test: Mutant IDH1 activity - D-2-hydroxyglutarate production in K562 cells; type: cell-based, human; conditions: 24-h incubation; for D-2-HG level after treatment (decrease to): 30 μM
Procedure: The K562 and U-251 cells were seeded in 3-cm Petri dishes (Nunc) at a density of 0.5 × 10^6 cells/well and incubated at 37 °C for 24 h. […] After a 24-h treatment, the assays were performed using a D-2-Hydroxyglutarate Assay Kit (Abcam) according to the manufacturer’s instructions. Briefly, 25 μL of each cell lysate was transferred onto 96-well plates. Internal and external standards (containing 1 mM D2HG) were also prepared. Then, a freshly prepared reaction mix containing D2HG Assay Buffer, D2HG Enzyme and D2HG Substrate Mix was added to each well. Reaction mixes with the cell lysates were incubated for 60 min at 37 °C in the dark. The optical densities of the samples were analyzed at 450 nm using a Synergy 4 multi-plate reader. The experiments were performed at least four times. The D-2-Hydroxyglutarate concentration is expressed as nM/μL.

ABL1 enzyme = ABL1 enzyme (Homo sapiens, UniProt P00519); test: Pharmacological synergy on the ABL enzyme model (TOS inhibitors and axitinib, ABL1 Kinase Assay, Chou-Talalay); conditions: for Combination index [CI]: combination with axitinib, for Fa = 0.9, CI < 1 synergy, CompuSyn
Procedure: The experiments were performed at least three times. The synergy was calculated according to the Chou-Talay method (CompuSyn software) [33, 70]. Briefly, the concentration range was adjusted to cover the specified IC50 value against the ABL1 enzyme for each inhibitor.

ABL1 T315I = molecular target: T8, ABL1 T315I (Homo sapiens, UniProt P00519, T315I); test: ABL (T315I) Kinase Assay (ADP-Glo); type: biochemical; conditions: for inhibition at 0.5 µM: compound at 0.5 μM, read-out: Inhibitory Effect of the Non-Receptor Tyrosine Kinase Activity, ABL1 T315I
T8 construct: purchased Promega
Procedure: as §1
Briefly, the solutions of the compounds being tested at various concentrations were prepared in a 1x Kinase Reaction Buffer. Firstly, 1 μl of the solutions of the tested compounds or vehicle – 5% DMSO (as the control without an inhibitor) were added onto a 384-well low volume white plate. […] After 10 min of incubation at RT, 2 μL of the substrate/ATP mixture was added to each well and incubated for 1h at RT. The luminescence of the kinase activity after treatment with the tested compounds was measured using an ADP-Glo Kinase Assay as was described above. The experiments were performed three times and the results are presented as the IC50 values, which were calculated using GraphPad Prism 7.

ABL1 native = molecular target: T9, ABL1 native (Homo sapiens, UniProt P00519); test: Tyrosine kinase inhibition in vitro (Kinase Selectivity TK-2 Profiling System, ADP-Glo); type: biochemical; conditions: for inhibition at 0.5 µM: compound at 0.5 μM, read-out: Inhibitory Effect of the Non-Receptor Tyrosine Kinase Activity, ABL1 native
T9 construct: purchased Promega
Procedure: as §1

IDH1 R132H = conditions: cited from earlier work
wild-type IDH1 = conditions: cited from earlier work
ABL1 recombinant protein = tested on: ABL1 recombinant protein; parameters: method as in PMID 19679652; conditions: cited from earlier work

T1 sequence (P07948 1-491 isoform P07948-2): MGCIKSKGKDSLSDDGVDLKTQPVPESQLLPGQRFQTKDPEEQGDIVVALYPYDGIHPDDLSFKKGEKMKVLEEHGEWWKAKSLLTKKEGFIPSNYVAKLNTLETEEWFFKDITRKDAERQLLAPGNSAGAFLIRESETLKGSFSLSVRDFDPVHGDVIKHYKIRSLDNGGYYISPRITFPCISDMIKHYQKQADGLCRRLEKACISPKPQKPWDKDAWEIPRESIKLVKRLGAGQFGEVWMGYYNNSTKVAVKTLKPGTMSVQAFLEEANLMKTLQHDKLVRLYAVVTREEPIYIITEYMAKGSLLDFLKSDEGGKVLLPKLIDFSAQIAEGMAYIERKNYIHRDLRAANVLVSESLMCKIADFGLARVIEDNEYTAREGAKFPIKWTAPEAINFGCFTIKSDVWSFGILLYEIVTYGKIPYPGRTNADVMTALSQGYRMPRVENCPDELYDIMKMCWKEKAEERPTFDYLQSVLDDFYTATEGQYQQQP

| SMILES | IC50 (Lyn B) | inhibition at 0.5 µM (Lyn B) | inhibition at 0.5 µM (Lck) | inhibition at 0.5 µM (Src) | inhibition at 0.5 µM (CSK) | inhibition at 0.5 µM (BRK) | IC50 (BTK) | inhibition at 0.5 µM (BTK) | inhibition at 0.5 µM (Fyn A) | IC50 (U-251) | IC50 (K562) | IC50 (PANC-1) | IC50 (MCF-7) | IC50 (HCT 116 p53+/+) | IC50 (HCT 116 p53-/-) | D-2-HG level after treatment (decrease to) [1] | Combination index [CI] (ABL1 enzyme) | IC50 (ABL1 T315I) | inhibition at 0.5 µM (ABL1 T315I) | IC50 (ABL1 native) | other results |
| --- | --- | --- | --- | --- | --- | --- | --- | --- | --- | --- | --- | --- | --- | --- | --- | --- | --- | --- | --- | --- | --- |
| CCCCc1ccc(NS(=O)(=O)c2ccc(C)c(C(=O)N3CCN(c4ccccc4O)CC3)c2)cc1 [TOS-1, N-(4-butylphenyl)-3-[4-(2-hydroxyphenyl)piperazine-1-carbonyl]-4-methylbenzene-1-sulfonamide] | 5 µM | 0% | 34.7 ± 2.51% | 0% | 38.4 ± 6.15% | 22.6 ± 0.94% | 4.94 µM | 32.3 ± 7.43% | 29.9 ± 4.29% | 27.59 ± 0.17 µM | 12.7 ± 3.2 µM | 25.2 ± 3.38 µM | 18.1 ± 1 µM | 24.7 ± 0.32 µM | 27.83 ± 0.17 µM | 24% | 0.5 | 5.02 µM | 29.3 ± 7.43% | 0.934 µM | IC50 (Fyn A): 4.15 µM; Fa (fraction affected), combination with axitinib (ABL1 enzyme; TOS-1 0.375 µM + axitinib 0.125 µM): 0.3787; Fa (fraction affected), combination with axitinib (ABL1 enzyme; TOS-1 0.625 µM + axitinib 0.25 µM): 0.4837; Fa (fraction affected), combination with axitinib (ABL1 enzyme; TOS-1 1.25 µM + axitinib 0.5 µM): 0.7204; Fa (fraction affected), combination with axitinib (ABL1 enzyme; TOS-1 2.5 µM + axitinib 1 µM): 0.8412; Fa (fraction affected), single agent (ABL1 enzyme; dose 0.375 µM): 0.1126; Fa (fraction affected), single agent (ABL1 enzyme; dose 0.625 µM): 0.4149; Fa (fraction affected), single agent (ABL1 enzyme; dose 1.25 µM): 0.559; Fa (fraction affected), single agent (ABL1 enzyme; dose 2.5 µM): 0.5863; inhibition at 0.5 µM (ABL1 native): 42.8 ± 8.46% |
| CNC(=O)c1ccccc1Sc1ccc2c(/C=C/c3ccccn3)n[nH]c2c1 [Axitinib, axitinib, reference compound] |  |  |  |  |  |  |  |  |  |  |  |  |  |  |  |  |  |  |  |  | reduced level of 2-hydroxyglutarate ([1]; axitinib 0.5 μM): 46% |
| N#Cc1ccnc(N2C(=O)CC[C@H]2C(=O)N(c2cncc(F)c2)[C@H](C(=O)NC2CC(F)(F)C2)c2ccccc2Cl)c1 [ivosidenib] |  |  |  |  |  |  |  |  |  |  |  |  |  |  |  |  |  |  |  |  | IC50 (IDH1 R132H; read-out: IC50 IDH1 mutant): 0.012 µM; IC50 (wild-type IDH1): 0.024 µM |
| CCCCc1ccc(NS(=O)(=O)c2ccc(C)c(C(=O)N3CCN(c4ccccc4OCCF)CC3)c2)cc1 [TOS-2, N-(4-butylphenyl)-3-{4-[2-(2-fluoroethoxy)phenyl]piperazine-1-carbonyl}-4-methylbenzene-1-sulfonamide] | 5 µM | 0% | 0% | 13.8 ± 4.23% | 9.66 ± 3.59% | 0% | 0.522 µM | 50.9 ± 1.87% | 19.6 ± 2.78% | > 30 µM | 17.3 ± 2.23 µM | 18.9 ± 0.42 µM | 15.6 ± 1.35 µM | 24.4 ± 0.82 µM | 28.9 ± 1.07 µM | 48% | 0.75 | > 10 µM | 26.1 ± 6.61% | 0.401 µM | Fa (fraction affected), combination with axitinib (ABL1 enzyme; TOS-2 0.0625 µM + axitinib 0.0625 µM): 0.354; Fa (fraction affected), combination with axitinib (ABL1 enzyme; TOS-2 0.125 µM + axitinib 0.125 µM): 0.4632; Fa (fraction affected), combination with axitinib (ABL1 enzyme; TOS-2 0.25 µM + axitinib 0.25 µM): 0.6215; Fa (fraction affected), combination with axitinib (ABL1 enzyme; TOS-2 0.5 µM + axitinib 0.5 µM): 0.6852; Fa (fraction affected), combination with axitinib (ABL1 enzyme; TOS-2 1 µM + axitinib 1 µM): 0.8101; Fa (fraction affected), single agent (ABL1 enzyme; dose 0.0625 µM): 0.07245; Fa (fraction affected), single agent (ABL1 enzyme; dose 0.125 µM): 0.2475; Fa (fraction affected), single agent (ABL1 enzyme; dose 0.25 µM): 0.3737; Fa (fraction affected), single agent (ABL1 enzyme; dose 0.5 µM): 0.518; Fa (fraction affected), single agent (ABL1 enzyme; dose 1 µM): 0.638; inhibition at 0.5 µM (ABL1 native): 59.2 ± 8.12% |
| C[C@H](O)c1cccc(NC(=O)c2nn(Cc3ccc(F)cc3)c3c2CN(C(=O)c2ccc[nH]2)C[C@H]3C)c1 [GSK-321] |  |  |  |  |  |  |  |  |  |  |  |  |  |  |  |  |  |  |  |  | inhibitory activity against IDH1 R132H in biochemical tests (IDH1 R132H): 4.6 nM |
| NC(=O)c1cccc(-c2cc(Nc3ccc(OC(F)(F)F)cc3)ncn2)c1 [GNF-2] |  |  |  |  |  |  |  |  |  |  |  |  |  |  |  |  |  |  |  |  | level of activity towards recombinant ABL1 protein (ABL1 recombinant protein): ~ 1 μM |
